Patent publication US9458187B2, “Methods for treatment of inflammatory conditions using S-[4-(3-fleuro-3-methylbutyryloxy)but-2-ynyl]6α, 9α-difluoro-17α-(furan-2-yl) carbonyloxy-11β-hydroxy-16α-methyl-3-oxoandrosta-1,4-diene-17β-carbothioate” (Sun Pharma Advanced Research Company Limited, priority 2013, dated 2016)

Tested on: ovalbumin-induced increase in intranasal pressure
Assay: Ovalbumin-induced increase in intranasal pressure
Type: in vivo, guinea pigs
Conditions: intranasal instillation 24 hr and 2 hr prior to ovalbumin challenge; FIG. 2
Description: Animals sensitized with ovalbumin as described above were used for experiments determining intranasal pressure. Intranasal instillation of compound of formula I, fluticasone propionate or placebo was done 24 hr and 2 hr prior to challenge with ovalbumin. The nasopharynx was catheterized with a PE cannula, one end of which was attached to pressure transducer and other to the nebulizer. Ovalbumin (5%) was nebulized into the nasal cavity for 10 min. The changes in intranasal pressure were recorded for following 45 min and differential pressure (dP) was calculated.

## C[C@@H]1CC2C3C[C@H](F)C4=CC(=O)C=C[C@]4(C)[C@@]3(F)[C@@H](O)C[C@]2(C)[C@@]1(OC(=O)c1ccco1)C(=O)SCC#CCOC(=O)CC(C)(C)F (stereo partly drawn) [Formula I, S-[4-(3-Fluoro-3-methylbutyryloxy)but-2-ynyl]6α,9α-difluoro-17α-(furan-2-yl)carbonyloxy-11β-hydroxy-16α-methyl-3-oxoandrosta-1,4-diene-17β-carbothioate]
  inhibition of intranasal pressure: equivalent inhibition
